These results are taken from PubChem BioAssay AID192 (DTP/NCI, 2004).

Molecules are shown by their SMILES. Inconclusive results and toxic doses are left out.

The subject of this assay is BDF1 mice, B16 melanoma ip, median survival T/C. Put plainly: NCI In Vivo Anticancer Drug Screen. Data for tumor model B16 Melanoma (intraperitoneal) in B6D2F1 (BDF1) mice. The settings on record: endpoint: median survival time, higher = longer survival. In a few lines:
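Each result divides a survival or tumor-size measurement in the compound-treated group by the same measurement in the vehicle group.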

Setting [1] is: dose: 100.0 mg/kg/injection, schedule: Q01DX009 (ip), vehicle: Klucel (hydroxypropylcellulose) (HPC).
Where [2] appears, read: dose: 100.0 mg/kg/injection, schedule: Q01DX009 (ip), vehicle: saline with Tween-80.
Where [3] appears, read: dose: 200.0 mg/kg/injection, schedule: Q01DX009 (ip), vehicle: saline with Tween-80.
The mark [4] stands for this setting: dose: 400.0 mg/kg/injection, schedule: Q01DX009 (ip), vehicle: Klucel (hydroxypropylcellulose) (HPC).
The mark [5] stands for this setting: dose: 200.0 mg/kg/injection, schedule: Q01DX009 (ip), vehicle: Klucel (hydroxypropylcellulose) (HPC).

As for `C=C1CCN(c2ccccc2Cl)C1=O`, the T/C (dose: 4.0 mg/kg/injection, schedule: Q01DX009 (ip), vehicle: saline + alcohol) is 104 % of control; the T/C (dose: 8.0 mg/kg/injection, schedule: Q01DX009 (ip), vehicle: saline + alcohol) was 98 % of control; the T/C (dose: 16.0 mg/kg/injection, schedule: Q01DX009 (ip), vehicle: saline + alcohol) is 101 % of control; the T/C (dose: 32.0 mg/kg/injection, schedule: Q01DX009 (ip), vehicle: saline + alcohol) was 121 % of control.

`CCCCN=[N+]=[N-]`: the T/C by setting is: (dose: 25.0 mg/kg/injection, schedule: Q01DX009 (ip), vehicle: water) 104 % of control; (dose: 50.0 mg/kg/injection, schedule: Q01DX009 (ip), vehicle: water) 98 % of control; (dose: 100.0 mg/kg/injection, schedule: Q01DX009 (ip), vehicle: water) 100 % of control; (dose: 200.0 mg/kg/injection, schedule: Q01DX009 (ip), vehicle: water) 98 % of control.

On to `CSc1nc2ccccc2s1`, for which the T/C runs as follows: (dose: 50.0 mg/kg/injection, schedule: Q01DX009 (ip), vehicle: Klucel (hydroxypropylcellulose) (HPC)) 106 % of control; under setting [1], 115 % of control.

As for `O=S(=O)(OCC(COS(=O)(=O)c1ccccc1)(COS(=O)(=O)c1ccccc1)COS(=O)(=O)c1ccccc1)c1ccccc1`, the T/C is 110 % of control (dose: 50.0 mg/kg/injection, schedule: Q01DX009 (ip), vehicle: saline with Tween-80); 97 % of control under setting [2]; 110 % of control under setting [3].

For the compound `CN1C(=O)C=CC1=O`, the T/C runs as follows: (dose: 0.5 mg/kg/injection, schedule: Q02DX009 (ip), vehicle: saline) 109 % of control; (dose: 1.0 mg/kg/injection, schedule: Q02DX009 (ip), vehicle: saline) 99 % of control; (dose: 2.0 mg/kg/injection, schedule: Q02DX009 (ip), vehicle: saline) 98 % of control; (dose: 4.0 mg/kg/injection, schedule: Q02DX009 (ip), vehicle: saline) 90 % of control.

On to `O=C(Nc1ccc(Cl)cc1)OCCN1CCOCC1`, for which the T/C runs as follows: under setting [2], 110 % of control; under setting [3], 110 % of control; (dose: 400.0 mg/kg/injection, schedule: Q01DX009 (ip), vehicle: saline with Tween-80) 97 % of control.

As for `COC1(OC)C2(Cl)C(Cl)=C(Cl)C1(Cl)C1C(=O)C=CC(=O)C12` (stereo not drawn), the T/C is, setting by setting: (dose: 1.56 mg/kg/injection, schedule: Q01DX009 (ip), vehicle: Klucel (hydroxypropylcellulose) (HPC)) 91 % of control; (dose: 3.12 mg/kg/injection, schedule: Q01DX009 (ip), vehicle: Klucel (hydroxypropylcellulose) (HPC)) 90 % of control; (dose: 6.25 mg/kg/injection, schedule: Q01DX009 (ip), vehicle: Klucel (hydroxypropylcellulose) (HPC)) 90 % of control; (dose: 12.5 mg/kg/injection, schedule: Q01DX009 (ip), vehicle: Klucel (hydroxypropylcellulose) (HPC)) 90 % of control; (dose: 25.0 mg/kg/injection, schedule: Q01DX009 (ip), vehicle: Klucel (hydroxypropylcellulose) (HPC)) 91 % of control; under setting [4], 88 % of control.

Turning to `[Cl][Pt+2][Cl].[NH-]C1CCCC1.[NH-]C1CCCC1`, the T/C was 107 % of control (dose: 2.5 mg/kg/injection, schedule: Q01DX009 (ip), vehicle: Klucel (hydroxypropylcellulose) (HPC)); 117 % of control (dose: 5.0 mg/kg/injection, schedule: Q01DX009 (ip), vehicle: Klucel (hydroxypropylcellulose) (HPC)); 112 % of control (dose: 10.0 mg/kg/injection, schedule: Q01DX009 (ip), vehicle: Klucel (hydroxypropylcellulose) (HPC)); 104 % of control (dose: 10.0 mg/kg/injection, schedule: Q01DX009 (ip), vehicle: olive oil, sesame oil, peanut oil); 109 % of control (dose: 10.0 mg/kg/injection, schedule: Q01DX009 (ip), vehicle: saline with Tween-80); 110 % of control (dose: 10.0 mg/kg/injection, schedule: Q01DX009 (ip), vehicle: saline). The T/C is 117 % of control (dose: 20.0 mg/kg/injection, schedule: Q01DX009 (ip), vehicle: saline with Tween-80); 124 % of control (dose: 20.0 mg/kg/injection, schedule: Q01DX009 (ip), vehicle: saline); 117 % of control (dose: 40.0 mg/kg/injection, schedule: Q01DX009 (ip), vehicle: saline with Tween-80); 108 % of control (dose: 40.0 mg/kg/injection, schedule: Q04DX003 (ip), vehicle: Klucel (hydroxypropylcellulose) (HPC)); 122 % of control (dose: 40.0 mg/kg/injection, schedule: Q04DX003 (ip), vehicle: saline); 105 % of control (dose: 80.0 mg/kg/injection, schedule: Q01DX001 (ip), vehicle: Klucel (hydroxypropylcellulose) (HPC)). Also, the T/C is 117 % of control (dose: 80.0 mg/kg/injection, schedule: Q01DX001 (ip), vehicle: saline); 115 % of control (dose: 80.0 mg/kg/injection, schedule: Q01DX009 (ip), vehicle: Klucel (hydroxypropylcellulose) (HPC)); 109 % of control (dose: 80.0 mg/kg/injection, schedule: Q01DX009 (ip), vehicle: saline with Tween-80); 105 % of control (dose: 80.0 mg/kg/injection, schedule: Q04DX003 (ip), vehicle: Klucel (hydroxypropylcellulose) (HPC)); 117 % of control (dose: 160.0 mg/kg/injection, schedule: Q01DX001 (ip), vehicle: Klucel (hydroxypropylcellulose) (HPC)); 94 % of control (dose: 160.0 mg/kg/injection, schedule: Q01DX009 (ip), vehicle: saline). Also, the T/C reads like this: (dose: 160.0 mg/kg/injection, schedule: Q04DX003 (ip), vehicle: Klucel (hydroxypropylcellulose) (HPC)) 105 % of control; (dose: 320.0 mg/kg/injection, schedule: Q01DX001 (ip), vehicle: Klucel (hydroxypropylcellulose) (HPC)) 123 % of control; (dose: 320.0 mg/kg/injection, schedule: Q04DX003 (ip), vehicle: Klucel (hydroxypropylcellulose) (HPC)) 114 % of control; (dose: 640.0 mg/kg/injection, schedule: Q04DX003 (ip), vehicle: saline) 105 % of control.

For the compound `O=NN(CCCl)C(=O)NCC1CCC(CNC(=O)N(CCCl)N=O)CC1` (stereo not drawn), the T/C by setting is: (dose: 17.0 mg/kg/injection, schedule: Q01DX009 (ip), vehicle: saline) 122 % of control; (dose: 33.0 mg/kg/injection, schedule: Q01DX009 (ip), vehicle: saline) 152 % of control; (dose: 65.0 mg/kg/injection, schedule: Q01DX009 (ip), vehicle: saline) 184 % of control; (dose: 130.0 mg/kg/injection, schedule: Q01DX009 (ip), vehicle: saline) 193 % of control.

Consider `CCc1ccc(NC(=O)Nc2ccc(Cl)cc2)cc1`, for which the T/C is, setting by setting: (dose: 100.0 mg/kg/injection, schedule: Q01DX009 (ip), vehicle: gum acacia) 89 % of control; (dose: 200.0 mg/kg/injection, schedule: Q01DX009 (ip), vehicle: gum acacia) 98 % of control; (dose: 400.0 mg/kg/injection, schedule: Q01DX009 (ip), vehicle: gum acacia) 93 % of control.

As to `CC(=O)OC1CC(O)C23COC(O)C1(C)C2CC(O)C1(C)C3C(=O)C(O)C2(C)C(c3ccoc3)CC3OC321` (stereo not drawn), the T/C is 111 % of control (dose: 0.13 mg/kg/injection, schedule: Q01DX009 (ip), vehicle: saline + alcohol); 102 % of control (dose: 0.25 mg/kg/injection, schedule: Q01DX009 (ip), vehicle: saline + alcohol); 115 % of control (dose: 0.5 mg/kg/injection, schedule: Q01DX009 (ip), vehicle: saline + alcohol); 98 % of control (dose: 1.0 mg/kg/injection, schedule: Q01DX009 (ip), vehicle: saline + alcohol).

For the compound `COc1ccc2c3c1OC1C4(CCC5C(C2)N(CC2CC2)CCC351)OCCO4` (stereo not drawn), the T/C (dose: 25.0 mg/kg/injection, schedule: Q01DX009 (ip), vehicle: saline) is 97 % of control; the T/C (dose: 50.0 mg/kg/injection, schedule: Q01DX009 (ip), vehicle: saline) was 97 % of control; the T/C (dose: 100.0 mg/kg/injection, schedule: Q01DX009 (ip), vehicle: saline) is 90 % of control.

Regarding `COC(=O)[C@]1(C)CCC[C@]2(C)[C@H]3CC4OO[C@@]3(CC[C@H]21)[C@H]1O[C@@]41C(C)C`, the T/C by setting is: under setting [2], 100 % of control; under setting [3], 113 % of control.

Regarding `CC(=O)NNC(=O)c1cnccn1`, the T/C (dose: 22.5 mg/kg/injection, schedule: Q01DX009 (ip), vehicle: saline) is 97 % of control; the T/C (dose: 45.0 mg/kg/injection, schedule: Q01DX009 (ip), vehicle: saline) was 97 % of control; the T/C (dose: 90.0 mg/kg/injection, schedule: Q01DX009 (ip), vehicle: saline) was 90 % of control.

On to `COc1ccc(NC(=O)Oc2ccc(OC)cc2)cc1`, for which the T/C was 90 % of control under setting [1], 93 % of control under setting [5] and 93 % of control under setting [4].

For `O=C(Nc1ccccc1)OCC(Cl)(Cl)Cl`, the T/C was 114 % of control under setting [1], 108 % of control under setting [5] and 102 % of control under setting [4].
